The values that follow come from patent publication US20240043427A1 (Gilead Sciences, Inc., priority 2020, published 2024).

One may read the EC50 as the concentration giving half of the maximal effect. A high value points to lower potency in that assay. By IC50 is commonly meant the concentration at which inhibition is half-maximal. Higher therefore signals weaker potency in that assay.

Assay [1] addresses T1, CD73 (Homo sapiens (Human), UniProt P21589). The assay can be described thus: MDA-MB-231 Cell Based CD73 Activity Assay (DMEM). The conditions noted are these: MDA-MB-231-GFP cells, DMEM medium with 10% human plasma, 200 uM AMP. The protocol:
MDA-MB-231 Cell Based CD73 Activity Assay (DMEM) MDA-MB-231-GFP cells were seeded in 384-well plates (Greiner 781946) at a density of 3000 cells per well in 50 μL of DMEM medium with 10% HP (human plasma). Cells were plated into assay plate with compounds pre-spotted, for an overnight compound treatment. 50 uL of 400 uM AMP (final concentration will be 200 uM) was added using Bio-tek dispenser. Plates were incubated for 100 mins. […] The samples were analyzed using Rapid fire.

Assay [2] deals with T1, CD73. It counts as biochemical. The conditions noted are these: 1 mM NaH2PO4 in enzyme buffer, CD73 0.3 nM, AMP 15 uM.

T1 sequence (P21589 27-574): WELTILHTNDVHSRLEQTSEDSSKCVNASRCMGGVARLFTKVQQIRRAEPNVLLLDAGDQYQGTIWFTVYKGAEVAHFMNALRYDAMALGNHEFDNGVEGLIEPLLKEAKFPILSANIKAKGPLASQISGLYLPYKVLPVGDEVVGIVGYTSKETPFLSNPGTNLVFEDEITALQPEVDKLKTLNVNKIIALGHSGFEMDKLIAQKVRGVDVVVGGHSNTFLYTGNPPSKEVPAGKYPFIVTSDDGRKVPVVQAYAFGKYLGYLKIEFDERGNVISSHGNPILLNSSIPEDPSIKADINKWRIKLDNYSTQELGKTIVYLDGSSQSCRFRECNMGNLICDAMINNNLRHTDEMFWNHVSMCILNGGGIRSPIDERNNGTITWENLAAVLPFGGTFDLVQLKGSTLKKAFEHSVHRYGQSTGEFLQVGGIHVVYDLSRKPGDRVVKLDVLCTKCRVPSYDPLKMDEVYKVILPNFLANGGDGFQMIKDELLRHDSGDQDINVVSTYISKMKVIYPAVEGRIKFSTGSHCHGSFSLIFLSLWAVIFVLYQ

As for `O=c1[nH]cc(-c2cc(N3C4CCCC3CC4)c3nccn3n2)c(=O)[nH]1` [Example 648, 5-(8-(8-azabicyclo[3.2.1]octan-8-yl)imidazo[1,2-b]pyridazin-6-yl)pyrimidine-2,4(1H,3H)-dione], it took 1950 nM to reach a half-maximal effect at CD73 [1] (EC50). The same molecule came in with an IC50 at CD73 [2] of over 250 nM.
Molecule `O=c1[nH]cc(-c2cc([C@H]3C[C@@H]3c3ccc4nc(C(F)(F)F)sc4c3)c3nccn3n2)c(=O)[nH]1` [Example 562, 5-(8-((1S,2S)-2-(2-(trifluoromethyl)benzo[d]thiazol-6-yl)cyclopropyl)imidazo[1,2-b]pyridazin-6-yl)pyrimidine-2,4(1H,3H)-dione] gave an EC50 on CD73 [1] of 2.64 nM. Also, half-maximal inhibition at CD73 [2] (IC50) required 0.97 nM.
Molecule `O=c1[nH]cc(-c2cc(N3CC4CC4(F)C3)c3nccn3n2)c(=O)[nH]1` (stereo not shown) [Example 355, 5-(8-(1-fluoro-3-azabicyclo[3.1.0]hexan-3-yl)imidazo[1,2-b]pyridazin-6-yl)pyrimidine-2,4(1H,3H)-dione] yielded a 50% effective concentration (EC50) on CD73 [1] of 14.5 nM. The molecule further had an IC50 against CD73 [2] of 7.56 nM.
`O=c1[nH]cc(-c2cc(N3CC4CCCCC43)c3nccn3n2)c(=O)[nH]1` (stereo not shown) [Example 451, 5-(8-(7-azabicyclo[4.2.0]octan-7-yl)imidazo[1,2-b]pyridazin-6-yl)pyrimidine-2,4(1H,3H)-dione] displayed an EC50 at CD73 [1] of 167 nM. The molecule further registered a half-inhibitory concentration (IC50) on CD73 [2] of 67.6 nM.
As to `O=c1[nH]cc(-c2cc(N3CCC(C4CC(F)(F)C4)C3)c3nccn3n2)c(=O)[nH]1` (stereo not shown) [Example 578, 5-(8-(3-(3,3-difluorocyclobutyl)pyrrolidin-1-yl)imidazo[1,2-b]pyridazin-6-yl)pyrimidine-2,4(1H,3H)-dione], at CD73 [1], the EC50 was 1870 nM. Moreover, on CD73 [2], inhibition was half-maximal at 161 nM (IC50).
Taken in the same sequence, the figures for `O=C1N(CC(F)(F)F)c2cc([C@H]3C[C@@H]3c3cc(-c4c[nH]c(=O)[nH]c4=O)nn4c(F)cnc34)ccc2C12CC2` [Example 381, 5-(3-fluoro-8-((1S,2S)-2-(2′-oxo-1′-(2,2,2-trifluoroethyl)spiro[cyclopropane-1,3′-indolin]-6′-yl)cyclopropyl)imidazo[1,2-b]pyridazin-6-yl)pyrimidine-2,4(1H,3H)-dione] were 0.16 nM and 0.69 nM.
For `N#Cc1ccc(C2CN(c3cc(-c4c[nH]c(=O)[nH]c4=O)nn4ccnc34)C2)cc1` [Example 247, 4-(1-(6-(2,4-dioxo-1,2,3,4-tetrahydropyrimidin-5-yl)imidazo[1,2-b]pyridazin-8-yl)azetidin-3-yl)benzonitrile] the same measures were 93.6 nM and 41.9 nM.
For `O=c1[nH]cc(-c2cc([C@H]3C[C@@H]3c3ccc4ccc(OCC(F)(F)F)nc4c3)c3nccn3n2)c(=O)[nH]1` (racemic) [Example 599, 5-(8-((1S,2S)-2-(2-(2,2,2-trifluoroethoxy)quinolin-7-yl)cyclopropyl)imidazo[1,2-b]pyridazin-6-yl)pyrimidine-2,4(1H,3H)-dione] the same measures were 41.2 nM and 2.38 nM.
`O=c1[nH]cc(-c2cc([C@H]3C[C@@H]3c3ccn4c(C(F)(F)F)ncc4c3)c3nccn3n2)c(=O)[nH]1` (racemic) [Example 625, 5-(8-((1S,2S)-2-(3-(trifluoromethyl)imidazo[1,5-a]pyridin-7-yl)cyclopropyl)imidazo[1,2-b]pyridazin-6-yl)pyrimidine-2,4(1H,3H)-dione]: the response at CD73 [1] was half-maximal at 10.1 nM (EC50). Moreover, the IC50 on CD73 [2] was 2.47 nM.
Taken in the same sequence, the figures for `O=C(c1cn2nc(-c3c[nH]c(=O)[nH]c3=O)cc([C@H]3C[C@@H]3c3ccc(F)cc3)c2n1)N1CC(F)(F)C1` (racemic) [Example 198, 5-[2-(3,3-difluoroazetidine-1-carbonyl)-8-[(1S,2S)-2-(4-fluorophenyl)cyclopropyl]imidazo[1,2-b]pyridazin-6-yl]-1H-pyrimidine-2,4-dione] were 191 nM and 85.2 nM.
Taken in the same sequence, the figures for `O=c1[nH]cc(-c2cc(N3CCC4(CCC(F)(F)CC4)C3)c3nccn3n2)c(=O)[nH]1` [Example 587, 5-(8-(8,8-difluoro-2-azaspiro[4.5]decan-2-yl)imidazo[1,2-b]pyridazin-6-yl)pyrimidine-2,4(1H,3H)-dione] were 66.1 nM and 23.3 nM.
Taken in the same sequence, the figures for `O=C(c1ccc(C2CN(c3cc(-c4c[nH]c(=O)[nH]c4=O)nn4ccnc34)C2)cc1)N1CC(F)(F)C1` [Example 267, 5-(8-(3-(4-(3,3-difluoroazetidine-1-carbonyl)phenyl)azetidin-1-yl)imidazo[1,2-b]pyridazin-6-yl)pyrimidine-2,4(1H,3H)-dione] were 66.6 nM and 34.7 nM.
At CD73 [1], `CC1(C)CC(=O)N(c2cc(-c3c[nH]c(=O)[nH]c3=O)nn3ccnc23)C1` [Example 513, 5-(8-(4,4-dimethyl-2-oxopyrrolidin-1-yl)imidazo[1,2-b]pyridazin-6-yl)pyrimidine-2,4(1H,3H)-dione] yielded a concentration for a half-maximal effect (EC50) of 934 nM. The IC50 against CD73 [2] is over 250 nM.
For the molecule `O=c1[nH]cc(-c2cc(NCCc3cccc(C(F)(F)F)c3)c3nccn3n2)c(=O)[nH]1` [Example 489, 5-(8-((3-(trifluoromethyl)phenethyl)amino)imidazo[1,2-b]pyridazin-6-yl)pyrimidine-2,4(1H,3H)-dione], the EC50 at CD73 [1] was found to be 1680 nM. Besides, the half-maximal inhibitory concentration (IC50) against CD73 [2] was over 250 nM.
`O=c1[nH]cc(-c2cc(N3C[C@@H](Oc4ncc(C(F)(F)F)cn4)C(F)(F)C3)c3nccn3n2)c(=O)[nH]1` [Example 532, (R)-5-(8-(3,3-difluoro-4-((5-(trifluoromethyl)pyrimidin-2-yl)oxy)pyrrolidin-1-yl)imidazo[1,2-b]pyridazin-6-yl)pyrimidine-2,4(1H,3H)-dione] gave an EC50 at CD73 [1] of 21.5 nM. Also, at CD73 [2], the IC50 is 4.42 nM.
For `O=c1[nH]cc(-c2cc(N3CC(C4CC4)C3)c3nccn3n2)c(=O)[nH]1` [Example 404, 5-(8-(3-cyclopropylazetidin-1-yl)imidazo[1,2-b]pyridazin-6-yl)pyrimidine-2,4(1H,3H)-dione] the same measures were 77.6 nM and 22.9 nM.
For `N#Cc1ccc([C@H]2C[C@@H]2c2cc(-c3c[nH]c(=O)[nH]c3=O)nn3c(F)cnc23)cc1F` [Example 415, 4-((1S,2S)-2-(6-(2,4-dioxo-1,2,3,4-tetrahydropyrimidin-5-yl)-3-fluoroimidazo[1,2-b]pyridazin-8-yl)cyclopropyl)-2-fluorobenzonitrile] the same measures were 3.93 nM and 0.79 nM.
Taken in the same sequence, the figures for `CC1(O)CCN(c2cc(-c3c[nH]c(=O)[nH]c3=O)nc3ccnn23)C1` (stereo not shown) [Example 246, 5-(7-(3-hydroxy-3-methylpyrrolidin-1-yl)pyrazolo[1,5-a]pyrimidin-5-yl)pyrimidine-2,4(1H,3H)-dione] were 213 nM and 168 nM.
`O=c1[nH]cc(-c2cc(-c3cnn(C(F)F)c3)c3nccn3n2)c(=O)[nH]1` [Example 509, 5-(8-(1-(difluoromethyl)-1H-pyrazol-4-yl)imidazo[1,2-b]pyridazin-6-yl)pyrimidine-2,4(1H,3H)-dione]: it took 90.1 nM to reach a half-maximal effect at CD73 [1] (EC50). This molecule had an IC50 against CD73 [2] of 49.5 nM.
Molecule `O=c1[nH]cc(-c2cc([C@H]3C[C@@H]3c3cc(F)c4cnn(CC(F)(F)F)c4c3)c3nccn3n2)c(=O)[nH]1` [Example 596, 5-(8-((1S,2S)-2-(4-fluoro-1-(2,2,2-trifluoroethyl)-1H-indazol-6-yl)cyclopropyl)imidazo[1,2-b]pyridazin-6-yl)pyrimidine-2,4(1H,3H)-dione] registered a half-maximal effective concentration (EC50) on CD73 [1] of 0.14 nM. In addition, half-maximal inhibition against CD73 [2] (IC50) required 0.7 nM.
